Experimental data as given in patent US12478081B2, “Application of aspartic acid derivative in preparing animal feed additive” (ANIPHA TECHNOLOGIES PTY LTD, priority 2018, dated 2025).
Marks after values point to notes of the source that are not given here.

What was measured:
[1] = tested on: weaned piglets; assay: Breeding test: production performance of weaned piglets; assay type: in vivo, Duroc×Landrace×Yorkshire cross-bred weaned piglets; conditions: for ADFI (g/d*each pig) / ADG (g/d*each pig) / FCR: weaned piglets, 45 ppm in basal daily ration, 40 days; for increase of the average daily gain of the test pigs: compared with the control group, not significant
Excerpt: From 95 litters of 28±2 days old Duroc×Landrace×Yorkshire cross-bred weaned piglets, 360 clinically healthy piglets with similar body weights were selected as test pigs, which were randomly divided into 12 groups, with 3 replications per group and 10 pigs (half of male and female) per replication. The piglets were attracted to the food trough at the age of 7 days, and the hog house for 28-day-old weaned pigs has a cement floor, steel fence, good ventilation, and suitable temperature. The pigpens and utensils were sterilized before the test.
During the test period, the test pigs were free-stall housed in the same pigpen under the same feeding and management conditions, and were free to drink water and eat feed. The hog house was cleaned once a day, and the floor is washed once every three days to maintain clean and hygienic conditions. The test pigs were fed three times a day. The test groups include control and test groups. Group I is the control group, in which only the basal daily ration was fed to the piglets. […] 1000 ppm of a the aspartic acid derivative metal ion salt was added into the basal daily ration for the piglets in the groups VIII-XII, as shown in Table 2. No other antioxidant ingredients or growth promoters were added for the test groups during the entire feeding process. The test period was 40 days.
The test pigs were weighed during 7:00 to 9:00 in the morning of Day 0 and Day 40 after the start of the test. During the test period, the feed intake and health status of the piglets were observed every day, the remaining daily ration was weighed, the feed consumption was recorded, and the average daily feed intake (ADFI, g/d*each pig), the average daily gain (ADG, g/d*each pig), and the feed conversion ratio (FCR) were calculated. Calculation formulas are as follows: […]
(§1) The test data was statistically analyzed using SPSS18 software. First, a one-way analysis of variance (ANOVA) was performed on the data. If the difference between treatments is significant, Duncan's method was used for multiple comparisons, and the significance level was 0.05.

[2] = tested on: broilers; assay: Breeding test: production performance of broilers; assay type: in vivo, yellow-feathered broilers; conditions: for ADFI (g/d*each broiler) / ADG (g/d*each broiler) / FCR: broilers, 300 ppm in basal daily ration, 20 days; for effect on the average daily gain of the test broilers (in words): 300 ppm, compared with the control group
Excerpt: The test adopted a single-factor random design. 420 1-day-old yellow-feathered broilers with similar body weights and having an average weight of 50 g were selected and randomly divided into 7 treatment groups, with 3 replications per group and 20 yellow-feathered broilers (half of male and female) per replication. The poultry houses and utensils were sterilized before the test. During the test period, the Jingbai laying hens were cage cultured in the same laying henhouse under the same feeding and management conditions. The basal daily ration was mainly corn-soybean meal, and no other antioxidant ingredients or growth promoters were added additionally during the entire feeding process. The test groups include a control group and test groups I-VII. The basal daily ration was fed for the control group I only, and 300 ppm of different aspartic acid derivatives were added into the basal daily ration for the test groups II-VII, as shown in Table 5. The test period was 20 days. The test yellow-feathered broilers were free to drink water and eat feed, and were fed twice a day. Taking each repetition as a unit, the test broilers were weighed at the age of 21 days (where provisioning of feeds was stopped for 12 hours, but provisioning of water was not stopped), the feed consumption of the test broilers were calculated, and the average daily feed intake (ADFI, g/d*each broiler), the average daily gain (ADG, g/d*each broiler) and the feed conversion ratio (FCR) were calculated for the test broilers of each group. Calculation formulas are as follows: […]
as §1

Row | Compound | ADFI (g/d*each pig) [1] | ADG (g/d*each pig) [1] | FCR [1] | ADFI (g/d*each broiler) [2] | ADG (g/d*each broiler) [2] | FCR [2] | increase of the average daily gain of the test pigs [1] | effect on the average daily gain of the test broilers (in words) [2]
1 | NCCCCCCCCCCCCCC(=O)NC(CC(=O)O)C(=O)O (racemic) [Compound 11, N-(14-aminomyristoyl)-DL-aspartic acid] | 322 ± 16^a g/d*each pig | 150 ± 4^bc g/d*each pig | 2.14 ± 0.05 | 36.70 ± 0.54^ac g/d*each broiler | 15.02 ± 0.13^b g/d*each broiler | 2.44 ± 0.04^b |  | 
2 | NCCCCCCCCCC(=O)NC(CC(=O)O)C(=O)O (racemic) [Compound 10, N-(10-aminodecanoyl)-DL-aspartic acid] | 321 ± 7^a g/d*each pig | 150 ± 1^bc g/d*each pig | 2.14 ± 0.06 | 34.82 ± 0.64^a g/d*each broiler | 14.40 ± 0.15^b g/d*each broiler | 2.42 ± 0.04^b |  | 
3 | NCCCC(=O)NC(CC(=O)O)C(=O)O (racemic) [Compound 9, N-(4-aminobutyryl)-DL-aspartic acid] | 311 ± 18^a g/d*each pig | 146 ± 4^abc g/d*each pig | 2.13 ± 0.06 | 37.92 ± 0.53^c g/d*each broiler | 15.84 ± 0.10^b g/d*each broiler | 2.39 ± 0.04^b | 8.1% | 
4 | NC(=O)NC(CC(=O)O)C(=O)O (racemic) [Compound 1, N-carbamoyl-DL-aspartic acid] | 315 ± 14^a g/d*each pig | 145 ± 10^abc g/d*each pig | 2.18 ± 0.05 | 38.83 ± 0.53 g/d*each broiler | 16.59 ± 0.14^b g/d*each broiler | 2.34 ± 0.03^b | 7.0% | the most significant
5 | CCOC(=O)CC(NC(N)=O)C(=O)OCC (racemic) [Compound 2, diethyl N-carbamoyl-DL-aspartate] | 374 ± 11^b g/d*each pig | 176 ± 2^d g/d*each pig | 2.13 ± 0.05 | 40.05 ± 0.81^d g/d*each broiler | 16.81 ± 0.68^b g/d*each broiler | 2.39 ± 0.05^b |  | the most significant
6 | NCC(=O)NC(CC(=O)O)C(=O)O (racemic) [Compound 8, N-glycyl-DL-aspartic acid] | 305 ± 12^a g/d*each pig | 142 ± 1^ab g/d*each pig | 2.15 ± 0.07 | 36.05 ± 0.83^b g/d*each broiler | 14.48 ± 0.24^b g/d*each broiler | 2.49 ± 0.03^ab | 5.2% | 
